Laboratory results: patent publication US12534436B2, “Disubstituted adamantyl derivative or pharmaceutically acceptable salt thereof, and pharmaceutical composition for suppressing cancer growth comprising same as active ingredient” (ONECUREGEN CO., LTD., priority 2020, dated 2026)

Tests used:
Type in all cases: cell-based, human
[1] = test system: HepG2 cells; test: HepG2 cell proliferation at different glucose concentrations; details: low glucose (3 mM) versus high glucose (25 mM) medium (FIG. 5C)
Description: The glycolytic function is activated in many cancer cells. Accordingly, it was investigated whether LW1564 (compound 21-3) affected cancer cell proliferation according to glucose concentration. […] Next, in order to investigate the combined effect of LW1564 (compound 21-3), […] on the proliferation of HepG2 cells, Combination Index (CI) and isobologram analysis were performed. The CI value quantitatively represents the correlation between two drugs through GI50 analysis indicating the cell proliferation suppression concentration, and synergistic, additive and antagonistic effects are defined as CI<1, CI=1 and CI>1.

[2] = test system: Complex II/III; test: Mitochondrial respiration assay, complex II/III (succinate); details: HepG2 cells (FIG. 4C)
Description: (§1) Compounds that suppress mitochondrial respiration promote degradation of HIF-1α by increasing cellular oxygen content. Accordingly, it was investigated whether LW1564 (compound 21-3) affected mitochondrial respiration by measuring the oxygen consumption rate (OCR). Oxygen consumption was measured using an Oxytherm Clark-type electrode system (Hansatech, Norfolk, UK) (Chou, T. C. Theoretical basis, experimental design, and computerized simulation of synergism and antagonism in drug combination studies. Pharmacol. Rev. 58, 621-681 (2006)). HepG2 cells (2×10^7) were cultured with 2 μM LW1564 (compound 21-3) for 6 hours, collected, and then OCR was measured at 37° C. for 5 minutes with a thermoregulated controlled circulating system. For […] studies, digitonin-permeabilised HepG2 cells (2×10^7) were read on a detection device containing 2 ml of respiratory buffer (0.25 M sucrose, 2 mM KH2PO4, 5 mM MgCl2, 1 mM EDTA, 1 mM ADP, 20 mM MOPS, pH 7.4). The following substrates, which provide electrons to the components in the ETC, were then added: 5 mM sodium pyruvate, 5 mM sodium malate, 5 mM sodium succinate, 5 mM L-ascorbic acid and 0.2 mM N,N,N,N-tetra methyl-p-phenylenediamine (TMPD). Complex I, III and IV inhibitors (rotenone, antimycin A and KCN, respectively) were added to a final concentration of 1 μM. […]

[3] = test system: ATP production; test: ATP production and ATP content (ENLITEN ATP assay kit), HepG2 cells
Description: Next, the effect of mitochondrial respiration on ATP production by oxidative phosphorylation was evaluated by comparing the amount of ATP produced by glycolysis decomposition and mitochondrial respiration in the presence of LW1564 (compound 21-3). ATP content was determined as described in “Chou, T. C. Theoretical basis, experimental design, and computerized simulation of synergism and antagonism in drug combination studies. Pharmacol. Rev. 58, 621-681 (2006).” After HepG2 cells were seeded and incubated with LW1564 (compound 21-3) for 6 hours, ATP content was measured using an ENLITEN® ATP assay kit (Promega, Madison, WI, USA) according to the manufacturer's instructions. Under normoxic conditions, HepG2 cells gained 47% of ATP by mitochondrial respiration and 53% by glycolysis decomposition. […] Compensatory upregulation of this degradation in response to suppression of oxidative phosphorylation occurred by AMPK activation, which was induced by a high AMP/ATP ratio.

[4] = test system: HIF-1α mRNA; test: qPCR of HIF-1α mRNA; details: qPCR (FIG. 2C)
Excerpt: In addition, the amount of HIF-1α mRNA in LW1564-treated cells was investigated by a qPCR method. Total RNA was isolated using TRIzol reagent (Invitrogen), and cDNA was synthesized using TOPscript™ DryMIX (Enzynomics, Seoul, Korea). The HIF1A primer sequences are Fwd 5′-CTGACCCTGCACTCAATCAAG-3′ and Rev 5′-TGGGACTATTAGGCTCAGGTG-3.

[5] = test system: mitochondrial ETC complex I; test: Mitochondrial respiration assay, complex I (malate/pyruvate); details: HepG2 cells, 100 μM LW1564 (FIG. 4B)
Description: as §1

[6] = test system: HIF-1α; test: Western blot of HIF-1α accumulation in HepG2 cells
[7] = test system: AMPK signaling; test: Western blot of AMPK/mTOR signaling in HepG2 cells
[8] = test system: mitochondrial respiration; test: Oxygen consumption rate (OCR), Oxytherm Clark-type electrode, HepG2 cells; details: 2 μM, 6 hours (FIG. 3A)
Description: Compounds that suppress mitochondrial respiration promote degradation of HIF-1α by increasing cellular oxygen content. Accordingly, it was investigated whether LW1564 (compound 21-3) affected mitochondrial respiration by measuring the oxygen consumption rate (OCR). Oxygen consumption was measured using an Oxytherm Clark-type electrode system (Hansatech, Norfolk, UK) (Chou, T. C. Theoretical basis, experimental design, and computerized simulation of synergism and antagonism in drug combination studies. Pharmacol. Rev. 58, 621-681 (2006)). HepG2 cells (2×10^7) were cultured with 2 μM LW1564 (compound 21-3) for 6 hours, collected, and then OCR was measured at 37° C. for 5 minutes with a thermoregulated controlled circulating system. For […] studies, digitonin-permeabilised HepG2 cells (2×10^7) were read on a detection device containing 2 ml of respiratory buffer (0.25 M sucrose, 2 mM KH2PO4, 5 mM MgCl2, 1 mM EDTA, 1 mM ADP, 20 mM MOPS, pH 7.4). The following substrates, which provide electrons to the components in the ETC, were then added: 5 mM sodium pyruvate, 5 mM sodium malate, 5 mM sodium succinate, 5 mM L-ascorbic acid and 0.2 mM N,N,N,N-tetra methyl-p-phenylenediamine (TMPD). Complex I, III and IV inhibitors (rotenone, antimycin A and KCN, respectively) were added to a final concentration of 1 μM.

SMILES: COc1cc2c(cc1OC)CN(C(=O)C13CC4CC(C1)CC(c1ccc(OCC(=O)N5CCN(Cc6ccc(C(F)(F)F)cc6)CC5)cc1)(C4)C3)CC2 [Compound 21c, 2-(4-(3-(6,7-Dimethoxy-1,2,3,4-tetrahydroisoquinoline-2-carbonyl)adamantan-1-yl)phenoxy)-1-(4-(4-(trifluoromethyl)benzyl)piperazin-1-yl) ethanone]
- cell proliferation suppression according to glucose concentration [1]: stronger cell proliferation suppression efficacy in cells in a medium with a low glucose concentration (3 mM)
- oxygen consumption rate in the presence of succinate [2]: did not affect the oxygen consumption rate
- glycolysis-derived ATP production ([3]; HepG2 cells (FIG. 3B)): increased
- total ATP production, short period of time ([3]; HepG2 cells (FIG. 3B)): slightly decreased total ATP production
- intracellular total ATP levels, longer period ([3]; HepG2 cells (FIG. 3C)): significantly decreased intracellular total ATP levels
- mitochondrial-derived ATP production ([3]; HepG2 cells, normoxic, untreated cells 47% of ATP by mitochondrial respiration (FIG. 3B)): 16%
- amount of HIF-1α mRNA [4]: no change in the amount of HIF-1α mRNA
- oxygen consumption by complex I [5]: reduced oxygen consumption by complex I
- HIF-1α protein amount in the presence of cobalt chloride ([6]; Western blot, cobalt chloride (FIG. 2B)): did not affect HIF-la protein amount
- accumulation of HIF-1α ([6]; hypoxic conditions (FIG. 2B)): suppressed the accumulation of HIF-1α in a concentration-dependent manner
- phosphorylation of mTOR ([7]; concentration-dependent (FIG. 5A)): suppressed phosphorylation of mTOR
- phosphorylation of AMPK and ACC ([7]; western blot (FIG. 5A)): promoted phosphorylation of AMPK and its downstream protein, Acetyl-CoA carboxylase (ACC)
- oxygen consumption rate (OCR) [8]: significantly suppressed OCR
